Where no end group is shown, it is not given here.
Tests used:
[1] = test system: CD4+ T-cells (PBMCs); test: In vitro peptide stimulation and T-cell proliferation assay, CD4+; format: cell-based, human
Description: (§1) In vitro peptide stimulation and T-cell proliferation assay. Peripheral blood mononuclear cells (PBMCs) were freshly isolated from type 1 diabetes and healthy individuals using Ficoll-Hypaque density gradient centrifugation. PBMCs were labelled with the fluorescent dye CellTrace Violet (Invitrogen, Thermo Fisher Scientific) and cultured (2×10^5 cells/well) in round-bottom 96-well plates (Falcon, Becton Dickinson) with RPMI-1640 medium (Gibco, Thermo Fisher Scientific) supplemented with 5% autologous plasma in the presence or not of insulin peptides (20 μg/ml); PPD (10 μg/ml) and anti-CD3 (0.1 μg/ml; clone OKT3) were used as positive control. Two scrambled peptides: […] (SEQ ID NO: 17), […] (SEQ ID NO: 18), and the Exendin 9-39 fragment were used as negative controls. After 7 days, PBMCs were stained with PE-Cy7 anti-CD8 (clone RPA-T8, BD Pharmingen) and FITC anti-CD3 (clone UCHT1, BD Pharmingen). Samples were analysed by using a FACSCanto II (BD Bioscience) to evaluate T-cell proliferation measured as CellTrace Violet dilution. Cytofluorimetric analyses were performed using FlowJo Software (FlowJo, LLC). The results were given as stimulation index (SI), calculated as percentage of stimulated T-cell subset proliferation/percentage of unstimulated T-cell subset proliferation. Assay for detection of peptide specific T cells subsets was done as previously described (detailed in ESM methods, Assay for detection of peptide specific T cells)
(§2) T-cell stimulation with oxPTM-INSPs. To evaluate the immune cell response against the oxPTM-INSPs, we performed CD4+ and CD8+ T cells proliferation experiments using freshly isolated PBMCs (Study cohort 2, Table 1). Response was calculated as stimulatory index (SI) over unstimulated T-cells.

[2] = test system: CD8+ T-cells (PBMCs); test: In vitro peptide stimulation and T-cell proliferation assay, CD8+; format: cell-based, human
Description: as §1, §2

[3] = test system: serum IgG autoantibodies; test: ELISA for autoantibody detection: serum antibody binding to native and oxPTM insulin peptides; parameters: species or system human; details: for % binders, Healthy controls / Mean ± SEM (absorbance, OD), Healthy controls / % binders, Type 1 diabetes: Study cohort 1; for % binders, Type 1 diabetes: cut-off = mean of healthy controls to Nt-INSP plus 3 SEM; for Mean ± SEM (absorbance, OD), Type 1 diabetes: Study cohort 1 sera
Method: ELISA for autoantibody detection. The ELISA analysis of Nt-INS and oxPTM-INS autoantibodies was performed as previously described [18](detailed in ESM methods, ELISA assay for antibody detection).
Statistical analyses. Statistical analyses were performed using Prism Software 9.0 (GraphPad, San Diego, CA, USA). Cut-off points of positivity (binders) in the antibody ELISA for each peptide were defined by the mean of optical absorbance (O.D) of healthy controls to the corresponding Nt-INSP plus three times the standard error of the mean (SEM). Specificity and sensitivity were evaluated by receiver operating characteristic (ROC) curve analysis. Area under the curve (AUC) is reported as absolute value and was tested for equality according to DeLong et al. Differences in antibody levels and T-cell stimulation indices (SI) between groups were tested by the One way ANOVA or Student's t-tests as appropriate. Correlation analyses were tested by Pearson or Spearman's test, as appropriate. Categorical analyses were performed by Chi-square or McNemar's tests, as appropriate. For each set of experiments, p values were adjusted for multiple comparison using the Holm-Sidak's test. Hierarchical cluster and Principal Component Analysis (PCA) was done using Clustvis software (https://biit.cs.ut.ee/clustvis/) and Prism Software 9.0, respectively.
Antibody reactivity of type 1 diabetes serum against the candidate oxPTM-INSP. Identified peptide candidates were synthesised and exposed to either HOCl or ^●OH to generate oxPTM-INSPs that were first assessed by TOF-MS/ES+TIC to confirm modification (FIG. 17). Antibody response against native INSPs (Nt-INSPs) and oxPTM-INSPs was evaluated by ELISA using sera from Study cohort 1.
ESM Methods ELISA assay for antibody detection. The ELISA analysis of native (Nt-INS) and modified insulin (oxPTM-INS) was performed as previously described. Briefly, the ELISA plate was coated overnight at 4° C. with 100 μl per well of modified or native insulin in 0.05 M carbonate/bicarbonate buffer pH 9.6 at 10 μg/ml. The next day, the plates were washed 3 times with 0.1% Tween PBS, followed by blocking for 2 hours at room temperature with 200 μl per well of 5% BSA in 0.1% Tween PBS. After washing, 100 μl of 1:200-diluted serum samples in 5% BSA-0.1% Tween PBS were added for additional 2 hours incubation. ELISA plates were then washed 3 times with 0.1% Tween PBS followed by probing with anti-human IgG horse radish peroxidase conjugated (HRP, Sigma) at 1:1,000 dilution in 5% BSA-0.1% Tween PBS for another 1.5 hours incubation. The ELISA plates were washed, and 100 μg/ml TMB substrate in 0.1M sodium acetate pH 6.0 plus 2 μl/10 ml of H2O2, were added. Subsequently, the reaction was stopped with 20% v/v sulphuric acid. The optical density (O.D.) was measured at 450 nm using a GENios plate reader and Magellan software (TECAN, Dorset, UK).

[4] = test system: autoantibodies to oxPTM-INS; test: Competitive displacement ELISA, plate coated with oxidised insulin; format: binding, human; details: sera pre-incubated with peptide competitor
Method: A competitive displacement assay was performed to map the exact epitope, namely the exact amino acid sequence binding specificities and to test the binding to native peptides versus oxidised insulin peptides. The binding to the peptide was done by direct ELISA on the native or modified peptides or by competition ELISA. Initially native synthetic peptide was oxidised by exposing to 0.05 mM CuCl2; 90 mM H2O2; 10 mM NaOCl. Native and modified peptides were fractionated by AKTA to evaluated changes in molecular profile. AKTA fractions were then tested by ELISA for reactivity (FIGS. 2 and 3). We next perform competition ELISA with the native peptides and peptides exposed to 0.05 mM CuCl2; 90 mM H2O2; 10 mM NaOCl. Serum samples were pre-incubated with either native insulin peptides or oxidised insulin peptides. Finally, based on the amino acid sequence of the identified peptides we predicted the amino acids that would be oxidised by ^●OH and HOCl and designed synthetic peptides that contain the oxidised amino acids in the synthesis. Synthetic peptides were produced by standard commercially available methods, specifically by Peptide Protein Research Ltd. Briefly, peptide synthesis was performed by automated solid phase peptide synthesis (SPPS), which was followed by purification. Each individual amino acid was added to the growing chain according to the sequence. Where specified, dihydroxyphenylalanine was added to replace Tyr or cysteate were added to replace Cys. Similarly, these peptides were tested by competition ELISA. The table below describe the different competition ELISA performed:
Serum samples from children with type 1 diabetes were pre-incubated with the synthetic peptides before they were added to the native insulin or oxidised that were previously coated on the ELISA plate. If the antibodies in the serum sample bind to the peptide they will no longer bind to the insulin or oxidised insulin on the plate-competition ELISA. 1:200 dilutions of serum samples from T1D serum samples were pre-incubated for 2 hr at room temperature with the various peptides as shown in the table above. After incubation, serum/peptide mix was added to the ELISA plate previously coated overnight with either native insulin or oxidised insulin for an additional 2 hr incubation. Plates were then washed in a plate washer three times with PBS 0.05% tween. After washing, 100 ul of anti-human IgG diluted 1:1000 in 1% milk-PBS 0.05% tween were added for additional 1 hour and 30 min incubation. After washing, ELISA was developed by adding 100 ul of TMB (10 mg/ml in DMSO) in 10 ml of 0.1 M sodium acetate plus 2 ul of H2O2. Reaction was stopped by adding 0.5 M H2SO4 (usually 20 min for insulin ELISA).
To assess the binding specificity of serum samples to identified peptides, a competitive ELISA was performed. The ELISA was carried out following the method described above, except that the serum samples were pre-incubated for 2 h with and without 10 μg/ml peptides as competitors, before adding the serum samples to the insulin coated ELISA plate.

% binders, Healthy controls ([3]; in house modifications): 19%
Mean ± SEM (absorbance, OD), Healthy controls ([3]; in house modifications): 0.333 ± 0.030
% binders, Type 1 diabetes ([3]; in house modifications): 42%
% binders, Healthy controls ([3]; in silico modifications): 9%
Mean ± SEM (absorbance, OD), Healthy controls ([3]; in silico modifications): 0.143 ± 0.007
% binders, Type 1 diabetes ([3]; in silico modifications): 49%
Mean ± SEM (absorbance, OD), Type 1 diabetes ([3]; in house modifications): 0.405 ± 0.029
Mean ± SEM (absorbance, OD), Type 1 diabetes ([3]; in silico modifications): 0.242 ± 0.019
inhibition of type 1 diabetes serum binding to oxPTM-INS (in words) [4]: not
Sequence: SLYQLENYCN (Ac-SLYQLENYCN) [insulin A:12-21 native peptide]
CD4+ T-cell response, subjects with SI > 1 (%) ([1]; Controls (N = 11)): (54.5%)
CD4+ T-cell response, subjects with SI > 3 (%) ([1]; Controls (N = 11)): (18.2%)
CD4+ T-cell response, subjects with SI > 5 (%) ([1]; Controls (N = 11)): (9.1%)
CD4+ T-cell response, subjects with SI > 10 (%) ([1]; Controls (N = 11)): (0.0%)
CD4+ T-cell response, subjects with SI > 1 (%) ([1]; Type 1 diabetes (N = 18)): (72.2%)
CD4+ T-cell response, subjects with SI > 3 (%) ([1]; Type 1 diabetes (N = 18)): (27.8%)
CD4+ T-cell response, subjects with SI > 5 (%) ([1]; Type 1 diabetes (N = 18)): (21.1%)
CD4+ T-cell response, subjects with SI > 10 (%) ([1]; Type 1 diabetes (N = 18)): (16.7%)
CD8+ T-cell response, subjects with SI > 1 (%) ([2]; Controls (N = 11)): (36.4%)
CD8+ T-cell response, subjects with SI > 3 (%) ([2]; Controls (N = 11)): (36.4%)
CD8+ T-cell response, subjects with SI > 5 (%) ([2]; Controls (N = 11)): (36.4%)
CD8+ T-cell response, subjects with SI > 10 (%) ([2]; Controls (N = 11)): (18.2%)
CD8+ T-cell response, subjects with SI > 1 (%) ([2]; Type 1 diabetes (N = 18)): (50.0%)
CD8+ T-cell response, subjects with SI > 3 (%) ([2]; Type 1 diabetes (N = 18)): (22.2%)
CD8+ T-cell response, subjects with SI > 5 (%) ([2]; Type 1 diabetes (N = 18)): (11.1%)
CD8+ T-cell response, subjects with SI > 10 (%) ([2]; Type 1 diabetes (N = 18)): (5.6%)
